Results reported in PubChem BioAssay AID330 (DTP/NCI, 2004).
Several values for one entry are separate records, joined by “and”; a condition that tells them apart may be missing. Identical values can stand only once. Inconclusive results and toxic doses are left out.

Tested on: P388 leukemia ip, CD2F1 mice, survival T/C
Test: NCI In Vivo Anticancer Drug Screen. Data for tumor model P388 Leukemia (intraperitoneal) in CD2F1 (CDF1) mice
Settings: endpoint: median survival time, higher = longer survival
Summary of the method: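 Mice carrying the transplanted tumor received test compound or vehicle. Survival was recorded in each group, and the value is the treated-group measurement divided by that of the vehicle-treated control group.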

[1] = dose: 25.0 mg/kg/injection, schedule: Q01DX009 (ip), vehicle: saline
[2] = dose: 50.0 mg/kg/injection, schedule: Q01DX009 (ip), vehicle: saline
[3] = dose: 100.0 mg/kg/injection, schedule: Q01DX009 (ip), vehicle: saline
[4] = dose: 200.0 mg/kg/injection, schedule: Q01DX009 (ip), vehicle: saline
[5] = dose: 50.0 mg/kg/injection, schedule: Q01DX009 (ip), vehicle: saline with Tween-80
[6] = dose: 100.0 mg/kg/injection, schedule: Q01DX009 (ip), vehicle: saline with Tween-80
[7] = dose: 200.0 mg/kg/injection, schedule: Q01DX009 (ip), vehicle: saline with Tween-80
[8] = dose: 25.0 mg/kg/injection, schedule: Q01DX009 (ip), vehicle: saline with Tween-80

CCC1(C)N=C(N)Nc2nc3cc(C)c(C)cc3n21 (configuration not stated)
T/C (dose: 12.5 mg/kg/injection, schedule: Q01DX009 (ip), vehicle: saline): 92 % of control
T/C [1]: 91 % of control
T/C [2]: 92 % of control and 94 % of control

CCC(C)(O)P(=O)(O)O (configuration not stated)
T/C [2]: 98 % of control
T/C [3]: 98 % of control
T/C [4]: 95 % of control

N/C(=N\O)c1cn(C2OC(CO)C(O)C2O)c2ncnc(N)c12 (configuration not stated)
T/C (dose: 2.5 mg/kg/injection, schedule: Q01DX009 (ip), vehicle: saline sonified): 154 % of control
T/C (dose: 5.0 mg/kg/injection, schedule: Q01DX009 (ip), vehicle: saline sonified): 159 % of control

CCCCc1ccc(Sc2cccc3c2C(=O)c2c(Sc4ccc(CCCC)cc4)cccc2C3=O)cc1
T/C (dose: 100.0 mg/kg/injection, schedule: Q04DX003 (ip), vehicle: saline with Tween-80): 95 % of control
T/C (dose: 200.0 mg/kg/injection, schedule: Q04DX003 (ip), vehicle: saline with Tween-80): 90 % of control
T/C (dose: 400.0 mg/kg/injection, schedule: Q04DX003 (ip), vehicle: saline with Tween-80): 86 % of control

C=CCOc1cc2c(cc1OCC=C)C(=O)c1cc3c(cc1C2=O)OCO3
T/C (dose: 7.5 mg/kg/injection, schedule: Q01DX005 (ip), vehicle: saline with Tween-80): 95 % of control
T/C (dose: 15.0 mg/kg/injection, schedule: Q01DX005 (ip), vehicle: saline with Tween-80): 93 % of control

Cc1c(NC(=O)Nc2c(Cl)cccc2Cl)c(=O)n(-c2ccccc2)n1C
T/C (dose: 50.0 mg/kg/injection, schedule: Q01DX009 (ip), vehicle: Klucel (hydroxypropylcellulose) (HPC)): 102 % of control
T/C (dose: 100.0 mg/kg/injection, schedule: Q01DX009 (ip), vehicle: Klucel (hydroxypropylcellulose) (HPC)): 106 % of control
T/C (dose: 200.0 mg/kg/injection, schedule: Q01DX009 (ip), vehicle: Klucel (hydroxypropylcellulose) (HPC)): 97 % of control

O=C1C=CC(=O)N1c1ccc(I)cc1Cl
T/C [5]: 106 % of control
T/C [6]: 104 % of control
T/C [7]: 96 % of control

O=[N+]([O-])c1cc(NC(=S)SCc2ccc(Cl)cc2)ccc1Cl
T/C [8]: 106 % of control
T/C [1]: 105 % of control
T/C [5]: 100 % of control
T/C [2]: 100 % of control
T/C (dose: 50.0 mg/kg/injection, schedule: Q01DX009 (ip), vehicle: suspension in saline): 109 % of control
T/C [6]: 106 % of control
T/C [3]: 107 % of control
T/C (dose: 100.0 mg/kg/injection, schedule: Q01DX009 (ip), vehicle: suspension in saline): 108 % of control
T/C [7]: 106 % of control
T/C [4]: 110 % of control
T/C (dose: 200.0 mg/kg/injection, schedule: Q01DX009 (ip), vehicle: suspension in saline): 121 % of control

O=c1c2ccccc2nc(CCN(CCCl)CCCl)n1-c1ccc(Cl)cc1
T/C (dose: 25.0 mg/kg/injection, schedule: Q01DX001 (ip), vehicle: saline): 106 % of control
T/C (dose: 50.0 mg/kg/injection, schedule: Q01DX001 (ip), vehicle: saline): 113 % of control
T/C (dose: 200.0 mg/kg/injection, schedule: Q01DX001 (ip), vehicle: saline): 164 % of control

NNc1cc2c(nn1)CCN(C(=O)c1ccccc1)C2
T/C [2]: 98 % of control
T/C [3]: 108 % of control

C=C1C(=O)C23OC2C1CCC(=O)C1(C)CC[C@H](OC(C)=O)C(C)(C)[C@H]1CC3O (some centres not stated)
T/C (dose: 5.0 mg/kg/injection, schedule: Q01DX005 (ip), vehicle: Klucel (hydroxypropylcellulose) (HPC)): 104 % of control
T/C (dose: 10.0 mg/kg/injection, schedule: Q01DX005 (ip), vehicle: Klucel (hydroxypropylcellulose) (HPC)): 109 % of control
T/C (dose: 20.0 mg/kg/injection, schedule: Q01DX005 (ip), vehicle: Klucel (hydroxypropylcellulose) (HPC)): 111 % of control
T/C (dose: 40.0 mg/kg/injection, schedule: Q01DX005 (ip), vehicle: Klucel (hydroxypropylcellulose) (HPC)): 110 % of control and 114 % of control

Cc1ccccc1-c1cc2ccccc2c(N)n1
T/C (dose: 6.25 mg/kg/injection, schedule: Q01DX009 (ip), vehicle: saline with Tween-80): 118 % of control
T/C (dose: 12.5 mg/kg/injection, schedule: Q01DX009 (ip), vehicle: saline with Tween-80): 99 % of control

COc1ccc(/C=C(/C#N)c2ccc(Cl)cc2)cc1
T/C [8]: 92 % of control
T/C [5]: 92 % of control
T/C [6]: 95 % of control
T/C [7]: 93 % of control

Cc1ccnc(NCc2ccccn2)c1
T/C (dose: 50.0 mg/kg/injection, schedule: Q01DX005 (ip), vehicle: saline with Tween-80): 105 % of control
T/C (dose: 100.0 mg/kg/injection, schedule: Q01DX005 (ip), vehicle: saline with Tween-80): 102 % of control
